{"source": "patent EP0983294B1", "about": "“B-RING E[…] SULPHATES” (Wyeth, priority 1997, dated 1998)", "test_system": "Immature rats", "assay": "In vivo uterotropic activity", "details": "0.2 and 2 mg/kg for three days (S.C.)", "procedure": "Immature rats were treated with doses of 0.2 and 2 mg/kg 5,7,9-estratriene-3β,17β-diol for three days (S.C.) as well as additional groups (n=6) of rats treated with 0.5 µg ethinyl estradiol and vehicle as positive and negative controls, respectively."}
{"compound": "C[C@]12CCc3c(ccc4c3CC[C@H](O)C4)[C@@H]1CC[C@@H]2O", "note": "[5,7,9-estratriene-3β,17β-diol]", "values": [{"measurement": "uterine weight", "result": "uterine weight gains at both concentrations"}]}
